Key:
[1] = Chemical stability: hydrolysis in 5% NaHCO3; assay type: physicochemical; details: 5% NaHCO3, one hour; for initial amount of conjugate hydrolyzed, 5% NaHCO3 ambient: ambient temperature (~20° C.); for initial amount of conjugate hydrolyzed, 5% NaHCO3 100° C.: oil bath at 100° C.
[2] = Intranasal PK in rats, Ibu-HC vs Hydrocodone BT (Example 6); assay type: in vivo
Source text: The intranasal profiles of Ibu-HC were compared to the unconjugated drug Hydrocodone•BT by administering to rats intranasally and measuring the plasma concentration of hydrocodone or hydromorphone over time.

[3] = Intranasal PK in rats, Ibu-HC vs Adipate-HC (Example 3); details: equivalent to 2 mg/kg freebase hydrocodone
[4] = Water solubility / ability to be dosed in solution (Example 4)
[5] = Oral PK in rats, Ibu-HC and Cinnamate-HC vs Hydrocodone BT (Example 5)
[6] = Chemical stability: hydrolysis to hydrocodone in 1 N hydrochloric acid; details: 1 hour; for initial amount of conjugate hydrolyzed, 1N HCl ambient: ambient temperature (~20° C.); for initial amount of conjugate hydrolyzed, 1N HCl 100° C.: oil bath at 100° C.

SMILES	initial amount of conjugate hydrolyzed, 5% NaHCO3 ambient [1] [%]	initial amount of conjugate hydrolyzed, 5% NaHCO3 100° C. [1] [%]	water solubility [4]	initial amount of conjugate hydrolyzed, 1N HCl ambient [6] [%]	initial amount of conjugate hydrolyzed, 1N HCl 100° C. [6] [%]	other results
COc1ccc2c3c1OC1C(OC(=O)C(C)c4ccc(CC(C)C)cc4)=CCC4C(C2)N(C)CCC314 (stereo not shown) [Ibu-HC, ibuprofen-hydrocodone]	0	22	very low water solubility	–	–	hydrocodone plasma concentrations compared with Hydrocodone•BT [2]: significantly lower; plasma concentration of hydromorphone compared with Hydrocodone•BT [2]: very low; hydrocodone plasma concentrations compared with Adipate-HC [3]: significantly lower; plasma concentration of hydromorphone compared with Adipate-HC [3]: very low; hydrocodone and hydromorphone plasma concentrations compared with unconjugated Hydrocodone•BT ([5]; equivalent to 2 mg/kg freebase hydrocodone): similar; AUC and Cmax values (hydrocodone and hydromorphone) compared with Hydrocodone•BT ([5]; same dose based on hydrocodone freebase (2 mg/kg)): within the range of bioequivalence
COc1ccc2c3c1O[C@H]1C(=O)CC[C@H]4[C@@H](C2)N(C)CC[C@]314.O=C(O)C(O)C(O)C(=O)O [Hydrocodone•BT, hydrocodone bitartrate, reference compound]	–	–	–	–	–	hydrocodone AUC, higher than Ibu-HC ([2]; hydrocodone in plasma, relative to Ibu-HC): approximately 300%
COc1ccc2c3c1OC1C(OC(=O)CCCCC(=O)O)=CC[C@H]4[C@@H](C2)N(C)CC[C@]314 (stereo partly shown) [Adipate-HC, reference compound]	3	100	water-soluble	13	100	hydromorphone AUC, higher than Ibu-HC ([3]; hydromorphone in plasma, relative to Ibu-HC): approximately 940%; hydrocodone AUC, higher than Ibu-HC ([3]; released hydrocodone in plasma, relative to Ibu-HC): approximately 170%
COc1ccc2c3c1OC1C(OC(=O)COCC(=O)O)=CC[C@H]4[C@@H](C2)N(C)CC[C@]314 (stereo partly shown) [Diglycolate-HC]	–	–	water-soluble	–	–	–
COc1ccc2cc(C(C)C(=O)OC3=CCC4C5Cc6ccc(OC)c7c6C4(CCN5C)C3O7)ccc2c1 (stereo not shown) [Naproxen-HC, naproxen-hydrocodone]	0	8	–	0	33	–
